Data set [1] in a line: Molar enthalpy of transition or fusion. Particulars: DSC.
For data set [2] the following is noted: DTA; for Normal melting temperature: Crystal.

Three molecules from the NIST ThermoML archive (doi:10.1016/j.tca.2013.09.023) can be followed below.

Numbers after ± are expanded uncertainties.

Turning to `CCCCn1cc[n+](C)c1.[Br-]` [1-butyl-3-methylimidazolium bromide], in data set [1] (Crystal), the “Molar enthalpy of transition or fusion” value came out at 6.93 ± 0.239 kcal/mol. Also, in data set [2], the Normal melting temperature was 78.00 ± 2 °C.
For `CCCCn1cc[n+](C)c1.[Cl-]` [1-butyl-3-methylimidazolium chloride], the “Molar enthalpy of transition or fusion” value came to 0.645 ± 0.143 kcal/mol in data set [1] (Crystal 2) and 4.3 ± 0.239 kcal/mol in data set [1] (Crystal). In addition, the Triple point temperature in data set [2] (Crystal 2) is on record as 303.15 ± 2 K. Besides, the Normal melting temperature in data set [2] stood at 74.00 ± 2 °C.
`CCCCn1cc[n+](C)c1.[I-]` [1-butyl-3-methylimidazolium iodide]: the Glass transition temperature in data set [2] (Glass) was -70.00 ± 5 °C.
